Experimental data published in patent US11999739B2, “Antimicrobials methods of making and using the same” (BIOVERSYS AG, priority 2016, dated 2024).

Tests used:
[1] = system: Escherichia coli strain ATCC25922; assay: Standard microdilution MIC assay, E. coli; assay type: cell-based
Procedure, shortened: (§1)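 MICs obtained by CLSI-standard microdilution, quality-controlled with reference strains in parallel. Values reported as + or − relative to a 16 micrograms/mL cutoff.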

[2] = system: Staphylococcus aureus (S. aureus) 11540 strain; assay: Standard microdilution MIC assay, S. aureus; assay type: cell-based
Procedure, shortened: as §1

CSc1cc(-n2cc3cc(-c4cc(CCC[C@@H](N)C5CC5)cc(OC(F)(F)F)c4F)[nH]c3nc2=O)cc(F)c1[C@@H]1CCC[C@@H](CCNC(C)=N)N1 [Compound 242]
MIC [1]: ≤ 16 mg/L
MIC [2]: ≤ 16 mg/L

COc1cc(-n2cc3cc(-c4cc(CCC[C@@H](N)C5CC5)cc(C(F)(F)F)c4)[nH]c3nc2=O)ccc1[C@@H]1CCC[C@@H](CCNC(C)=N)N1 [Compound 243]
MIC [1]: ≤ 16 mg/L
MIC [2]: ≤ 16 mg/L

C=C[C@H](N)CCCc1cc(Cl)c(F)c(-c2cc3cn(-c4ccc([C@@H]5CCC[C@@H](CCNC(C)=N)N5)c(OC)c4)c(=O)nc3[nH]2)c1 [Compound 244]
MIC [1]: ≤ 16 mg/L
MIC [2]: ≤ 16 mg/L

CC(=N)NCC[C@@H]1CCC[C@@H](c2ccc(-n3cc4cc(-c5cc(CCC[C@@H]6COCCN6)cc(Cl)c5F)[nH]c4nc3=O)cc2F)N1 [Compound 245]
MIC [1]: ≤ 16 mg/L
MIC [2]: ≤ 16 mg/L

C=C[C@H](N)CCCc1cc(Cl)c(F)c(-c2cc3cn(-c4cc(F)c([C@@H]5CCC[C@@H](CCNC(C)=N)N5)c(F)c4)c(=O)nc3[nH]2)c1 [Compound 246]
MIC [1]: ≤ 16 mg/L
MIC [2]: ≤ 16 mg/L

CC(=N)NCC[C@@H]1CCC[C@@H](c2c(F)cc(-n3cc4cc(-c5cc(CCC[C@@H](N)C6CC6)cc(Cl)c5F)[nH]c4nc3=O)cc2F)N1 [Compound 247]
MIC [1]: ≤ 16 mg/L
MIC [2]: ≤ 16 mg/L

CC(=N)NCC[C@@H]1CCC[C@@H](c2ccc(-n3cc4cc(-c5cc(CCC[C@@H](N)C6CC6)cc(Cl)c5F)[nH]c4nc3=O)cn2)N1 [Compound 248]
MIC [1]: ≤ 16 mg/L
MIC [2]: ≤ 16 mg/L

CSc1cc(-n2cc3cc(-c4cc(CCC[C@@H](N)C5CC5)cc(C(F)(F)F)c4)[nH]c3nc2=O)ccc1[C@@H]1CCC[C@@H](CCNC(C)=N)N1 [Compound 250]
MIC [1]: ≤ 16 mg/L
MIC [2]: ≤ 16 mg/L

CSc1cc(-n2cc3cc(-c4cc(CCC[C@@H](N)C5CC5)cc(C(F)(F)F)c4F)[nH]c3nc2=O)ccc1[C@@H]1CCC[C@@H](CCNC(C)=N)N1 [Compound 251]
MIC [1]: ≤ 16 mg/L
MIC [2]: ≤ 16 mg/L

CSc1cc(-n2cc3cc(-c4cc(CCC[C@@H](N)C5CC5)cc(OC(F)(F)F)c4F)[nH]c3nc2=O)ccc1[C@@H]1CCC[C@@H](CCNC(C)=N)N1 [Compound 252]
MIC [1]: ≤ 16 mg/L
MIC [2]: ≤ 16 mg/L

CC(=N)N[C@@H](C)C[C@@H]1CCC[C@@H](c2ccc(-n3cc4cc(-c5cc(CCC[C@H](C)N)cc(Cl)c5F)[nH]c4nc3=O)cc2)N1 [Compound 253]
MIC [1]: ≤ 16 mg/L
MIC [2]: ≤ 16 mg/L

CSc1cc(-n2cc3cc(-c4cc(CCC[C@@H](N)CF)cc(C(F)(F)F)c4F)[nH]c3nc2=O)ccc1[C@@H]1CCC[C@@H](CCNC(C)=N)N1 [Compound 255]
MIC [1]: ≤ 16 mg/L
MIC [2]: ≤ 16 mg/L

CC(=N)N[C@@H](C)C[C@@H]1CCC[C@@H](c2ccc(-n3cc4cc(-c5cc(CCC[C@@H](N)C6CC6)cc(Cl)c5F)[nH]c4nc3=O)cc2)N1 [Compound 256]
MIC [1]: ≤ 16 mg/L
MIC [2]: ≤ 16 mg/L

CC(=N)N[C@H](C)C[C@@H]1CCC[C@@H](c2ccc(-n3cc4cc(-c5cc(CCC[C@@H](N)C6CC6)cc(Cl)c5F)[nH]c4nc3=O)cc2)N1 [Compound 257]
MIC [1]: ≤ 16 mg/L
MIC [2]: ≤ 16 mg/L

COC[C@H](N)CCCc1cc(OC(F)(F)F)c(F)c(-c2cc3cn(-c4ccc([C@@H]5CCC[C@@H](C[C@H](C)NC(C)=N)N5)cc4)c(=O)nc3[nH]2)c1 [Compound 258]
MIC [1]: ≤ 16 mg/L
MIC [2]: ≤ 16 mg/L

C=C[C@H](N)CCCc1cc(Cl)c(F)c(-c2cc3cn(-c4ccc([C@@H]5CCC[C@@H](CCNC(C)=N)N5)c(C)c4)c(=O)nc3[nH]2)c1 [Compound 259]
MIC [1]: ≤ 16 mg/L
MIC [2]: ≤ 16 mg/L

CSc1cc(-n2cc3cc(-c4cc(CCC[C@@H]5COCCN5)cc(Cl)c4F)[nH]c3nc2=O)ccc1[C@@H]1CCC[C@@H](CCNC(C)=N)N1 [Compound 260]
MIC [1]: ≤ 16 mg/L
MIC [2]: ≤ 16 mg/L

CC(=N)NCC[C@@H]1CCC[C@@H](c2ccc(-n3cc4cc(-c5cc(CCC[C@H](C)N)cc(Cl)c5F)[nH]c4nc3=O)cc2)N1CCc1cccnc1 [Compound 261]
MIC [1]: ≤ 16 mg/L
MIC [2]: ≤ 16 mg/L

CC(=N)NCC[C@@H]1CCC[C@@H](c2ccc(-n3cc4cc(-c5cc(CCC[C@H](C)N)cc(Cl)c5F)[nH]c4nc3=O)cc2)N1CCn1ccnc1 [Compound 262]
MIC [1]: ≤ 16 mg/L
MIC [2]: ≤ 16 mg/L

CC(=N)NCC[C@@H]1CCC[C@@H](c2ccc(-n3cc4cc(-c5cc(CCC[C@H](C)N)cc(Cl)c5F)[nH]c4nc3=O)cc2)N1CCn1ccnc1C [Compound 263]
MIC [1]: ≤ 16 mg/L
MIC [2]: ≤ 16 mg/L

C=C[C@H](NCCCNC(C)=N)c1ccc(-n2cc3cc(-c4cc(CCC[C@@H](N)C=C)cc(Cl)c4F)[nH]c3nc2=O)cc1 [Compound 265]
MIC [1]: ≤ 16 mg/L
MIC [2]: ≤ 16 mg/L

C=C[C@H](NCCCNC(C)=N)c1ccc(-n2cc3cc(-c4cc(CCC[C@@H](N)C5CC5)cc(Cl)c4F)[nH]c3nc2=O)cc1 [Compound 266]
MIC [1]: ≤ 16 mg/L
MIC [2]: ≤ 16 mg/L

C=C[C@H](NCCCNC(C)=N)c1ccc(-n2cc3cc(-c4cc(CCCC(C)(C)N)cc(Cl)c4F)[nH]c3nc2=O)cc1 [Compound 267]
MIC [1]: ≤ 16 mg/L
MIC [2]: ≤ 16 mg/L

C=C[C@H](NCCCNC(C)=N)c1ccc(-n2cc3cc(-c4cc(CCC[C@@H](N)COC)cc(OC(F)(F)F)c4F)[nH]c3nc2=O)cc1 [Compound 268]
MIC [1]: ≤ 16 mg/L
MIC [2]: ≤ 16 mg/L

CC(=N)NCC[C@@H]1CSC[C@@H](c2ccc(-n3cc4cc(-c5cc(CCC[C@@H](N)C6CC6)cc(Cl)c5F)[nH]c4nc3=O)cc2)N1 [Compound 269]
MIC [1]: ≤ 16 mg/L
MIC [2]: ≤ 16 mg/L

COC[C@H](N)CCCc1cc(OC(F)(F)F)c(F)c(-c2cc3cn(-c4ccc([C@@H]5CSC[C@@H](CCNC(C)=N)N5)cc4)c(=O)nc3[nH]2)c1 [Compound 270]
MIC [1]: ≤ 16 mg/L
MIC [2]: ≤ 16 mg/L

CC(=N)NCC[C@@H]1CSC[C@@H](c2ccc(-n3cc4cc(-c5cc(CCC[C@H](C)N)cc(Cl)c5F)[nH]c4nc3=O)cc2)N1 [Compound 271]
MIC [1]: ≤ 16 mg/L
MIC [2]: ≤ 16 mg/L

C=C[C@H](N)CCCc1cc(Cl)c(F)c(-c2cc3cn(-c4ccc([C@@H]5CCC[C@@H](CCNC(C)=N)N5)c(S(C)(=O)=O)c4)c(=O)nc3[nH]2)c1 [Compound 272]
MIC [1]: ≤ 16 mg/L
MIC [2]: ≤ 16 mg/L

CC(=N)NCC[C@@H]1CCC[C@@H](c2ccc(-n3cc4cc(-c5cc(CCC[C@@H](N)C6CC6)cc(Cl)c5F)[nH]c4nc3=O)cc2S(C)(=O)=O)N1 [Compound 273]
MIC [1]: ≤ 16 mg/L
MIC [2]: ≤ 16 mg/L

C=C[C@H](N)CCCc1cc(Cl)c(F)c(-c2cc3cn(-c4cc(F)c([C@@H]5CCC[C@@H](CCNC(C)=N)N5)c(SC)c4)c(=O)nc3[nH]2)c1 [Compound 274]
MIC [1]: ≤ 16 mg/L
MIC [2]: ≤ 16 mg/L

CSc1cc(-n2cc3cc(-c4cc(CCC[C@@H](N)C5CC5)cc(Cl)c4F)[nH]c3nc2=O)cc(F)c1[C@@H]1CCC[C@@H](CCNC(C)=N)N1 [Compound 275]
MIC [1]: ≤ 16 mg/L
MIC [2]: ≤ 16 mg/L

CSC[C@H](N)CCCc1cc(Cl)c(F)c(-c2cc3cn(-c4ccc([C@@H]5CCC[C@@H](CCNC(C)=N)N5)cc4)c(=O)nc3[nH]2)c1 [Compound 276]
MIC [1]: ≤ 16 mg/L
MIC [2]: ≤ 16 mg/L

COCCN1[C@H](CCNC(C)=N)CCC[C@H]1c1ccc(-n2cc3cc(-c4cc(CCC[C@H](C)N)cc(Cl)c4F)[nH]c3nc2=O)cc1 [Compound 277]
MIC [1]: ≤ 16 mg/L
MIC [2]: ≤ 16 mg/L

CC(=N)NCC[C@@H]1CCC[C@@H](c2ccc(-n3cc4cc(-c5cc(CCC[C@H](C)N)cc(Cl)c5F)[nH]c4nc3=O)cc2)N1Cc1cocn1 [Compound 278]
MIC [1]: ≤ 16 mg/L
MIC [2]: ≤ 16 mg/L

CC(=N)NCC[C@@H]1CCC[C@@H](c2c(F)cc(-n3cc4cc(-c5cc(CCC[C@@H](N)CF)cc(Cl)c5F)[nH]c4nc3=O)cc2F)N1 [Compound 279]
MIC [1]: ≤ 16 mg/L
MIC [2]: ≤ 16 mg/L

COC[C@H](N)CCCc1cc(OC(F)(F)F)c(F)c(-c2cc3cn(-c4cc(F)c([C@@H]5CCC[C@@H](CCNC(C)=N)N5)c(F)c4)c(=O)nc3[nH]2)c1 [Compound 280]
MIC [1]: ≤ 16 mg/L
MIC [2]: ≤ 16 mg/L

CC(=N)NCC[C@@H]1CCC[C@@H](c2c(F)cc(-n3cc4cc(-c5cc(CCC[C@@H](N)CO)cc(Cl)c5F)[nH]c4nc3=O)cc2F)N1 [Compound 281]
MIC [1]: ≤ 16 mg/L
MIC [2]: ≤ 16 mg/L

CC(=N)NCC[C@@H]1CCC[C@@H](c2c(F)cc(-n3cc4cc(-c5cc(CCC[C@H](C)N)cc(Cl)c5F)[nH]c4nc3=O)cc2N2CCOCC2)N1 [Compound 282]
MIC [1]: ≤ 16 mg/L
MIC [2]: ≤ 16 mg/L

CN=C(C)NCC[C@@H]1CCC[C@@H](c2ccc(-n3cc4cc(-c5cc(CCC[C@H](C)N)cc(Cl)c5F)[nH]c4nc3=O)cc2)N1 [Compound 283]
MIC [1]: ≤ 16 mg/L
MIC [2]: ≤ 16 mg/L

CC(=N)NCC[C@@H]1CCC[C@@H](c2ccc(-n3cc4cc(-c5cc(CCC[C@@H](N)CS(C)(=O)=O)cc(Cl)c5F)[nH]c4nc3=O)cc2)N1 [Compound 284]
MIC [1]: ≤ 16 mg/L
MIC [2]: ≤ 16 mg/L

CC(=N)NCC[C@@H]1CCC[C@@H](c2c(F)cc(-n3cc4cc(-c5cc(CCC[C@@H](N)C6CC6)cc(C(F)(F)F)c5)[nH]c4nc3=O)cc2F)N1 [Compound 285]
MIC [1]: ≤ 16 mg/L
MIC [2]: ≤ 16 mg/L

CSc1cc(-n2cc3cc(-c4cc(CCC[C@@H](N)C5CC5)cc(C(F)(F)F)c4)[nH]c3nc2=O)cc(F)c1[C@@H]1CCC[C@@H](CCNC(C)=N)N1 [Compound 286]
MIC [1]: ≤ 16 mg/L
MIC [2]: ≤ 16 mg/L

CC(=N)NCC[C@@H]1CCC[C@@H](c2ccc(-n3cc4cc(-c5ccc(C(F)(F)F)c(CCC[C@H](C)N)c5)[nH]c4nc3=O)cc2)N1 [Compound 287]
MIC [1]: ≤ 16 mg/L
MIC [2]: ≤ 16 mg/L

CC(=N)NCC[C@@H]1CCC[C@@H](c2ccc(-n3cc4cc(-c5cc(CCC[C@H](C)N)cc(Cl)c5F)[nH]c4nc3=O)cc2)N1Cc1c(C)ncn1C [Compound 288]
MIC [1]: ≤ 16 mg/L
MIC [2]: ≤ 16 mg/L

CC(=N)NCC[C@@H]1CCC[C@@H](c2ccc(-n3cc4cc(-c5cc(CCC[C@@H](N)CN)cc(Cl)c5F)[nH]c4nc3=O)cc2)N1 [Compound 289]
MIC [1]: ≤ 16 mg/L
MIC [2]: ≤ 16 mg/L

COC(=O)c1ccc(-c2cc3cn(-c4ccc([C@@H]5CCC[C@@H](CCNC(C)=N)N5)cc4)c(=O)nc3[nH]2)cc1CCC[C@H](C)N [Compound 291]
MIC [1]: ≤ 16 mg/L
MIC [2]: ≤ 16 mg/L
